# Patent publication US12534472B2, “Morphic forms of trilaciclib and methods of manufacture thereof” (Pharmacosmos Holding A/S, priority 2020, dated 2026)
# Entries after “also recorded” stand apart in the source; their conditions may differ.
# Experiments:
# Type in all cases: physicochemical
# [1] = Dynamic Vapor Sorption (DVS)
# Experimental: Approximately, 10-20 mg of sample was placed into a mesh vapor sorption balance pan and loaded into a DVS Intrinsic dynamic vapor sorption balance by Surface Measurement Systems. The sample was subjected to a ramping profile from 40-90% relative humidity (RH) at 10% increments, maintaining the sample at each step until a stable weight had been achieved (dm/dt 0.004%, minimum step length 30 minutes, maximum step length 500 minutes) at 25° C. After completion of the sorption cycle, the sample was dried using the same procedure to 0% RH and then a second sorption cycle back to 40% RH. Two cycles were performed. The weight change during the sorption/desorption cycles were plotted, allowing for the hygroscopic nature of the sample to be determined. XRPD analysis was then carried out on any solid retained. The above technique was used to generate the images in FIG. 5, FIG. 6, FIG. 47 and FIG. 48.
# [2] = Gravimetric Vapor Sorption (GVS); settings: 25° C.
# Experimental: Approximately 10-20 mg of sample was placed into a mesh vapor sorption balance pan and loaded into an IGASorp Moisture Sorption Analyzer balance by Hiden Analytical. The sample was subjected to a ramping profile from 40-90% relative humidity (RH) at 10% increments, maintaining the sample at each step until a stable weight had been achieved (98% step completion, minimum step length 30 minutes, maximum step length 60 minutes) at 25° C. After completion of the sorption cycle, the sample was dried using the same procedure to 0% RH, and finally taken back to the starting point of 40% RH. Three cycles were performed. The weight change during the sorption/desorption cycles were plotted, allowing for the hygroscopic nature of the sample to be determined. The above technique was used to generate the images in FIG. 40 and FIG. 41.
# [3] = Thermodynamic solubility in water at pH 4.2
# Experimental: Thermodynamic solubility was carried out for Pattern 1, Pattern 2/6 mixture, Pattern 3, amorphous di-HCl salts and Pattern 7 in water at pH 4.2. All samples were prepared at 30 mg/mL. Initial observations were made. The samples were agitated at ambient temperature for ca. 24 hours. The samples were collected and observations made. Observed solids were isolated via centrifugation. The mother liquor from the filtered sample was analyzed by HPLC. The pH 4.3 solution was prepared by diluting glacial acetic acid (11.6 mL) to 100 mL in deionized water, then adding sodium acetate (1.07 g) and acetic acid solution (5.9 mL) preparing up to 500 mL with deionized water; then the pH was adjusted to 4.2. The above technique was used to generate the images in FIG. 60.
# [4] = Competitive slurry experiments
# Experimental: Competitive slurry experiments were carried out using ca. 10 mg of Pattern 1, Pattern 2/6 mixture and Pattern 3 were weighed out and added to a 1.5 mL glass vial. Samples were prepared using 100 μL aliquots of solvent until a mobile slurry was formed. Samples were stirred at ambient temperature for 48 hours. A second set of samples were stirred at 60° C. for 48 hours. All samples were collected, and the solids were isolated and analyzed by XRPD. The above technique was used to generate the images in FIG. 50, FIG. 51, and FIG. 55 through FIG. 59.
smiles,measurement,setting,value
"CN1CCN(c2ccc(Nc3ncc4cc5n(c4n3)C3(CCCCC3)CNC5=O)nc2)CC1 [Pattern 1, 2′-((5-(4-methylpiperazin-1-yl)pyridin-2-yl)amino)-7′,8′-dihydro-6′H-spiro[cyclohexane-1,9′-pyrazino[1′,2′:1,5]pyrrolo[2,3-d]pyrimidin]-6′-one]",moisture adsorbed (DVS),[1]; at 40% RH,3.00 wt %
same,moisture adsorbed (DVS),[1]; at 90% RH,4.00 wt %
same,mass increase by DVS,[1]; between 0% and 90% RH,4%
same,XRPD analysis post-DVS (form stability),[1]; dried sample at the conclusion of the DVS experiment,confirmed Pattern 1; also recorded: no change
same,Change in Mass (%)-ref Desorption,"[2]; Cycle 1, desorption, target RH 0%",0.180%
same,Change in Mass (%)-ref Desorption,"[2]; Cycle 1, desorption, target RH 10%",2.320%
same,Change in Mass (%)-ref Desorption,"[2]; Cycle 1, desorption, target RH 20%",2.820%
same,Change in Mass (%)-ref Desorption,"[2]; Cycle 1, desorption, target RH 30%",3.110%
same,Change in Mass (%)-ref Desorption,"[2]; Cycle 1, desorption, target RH 40%",3.340%
same,Change in Mass (%)-ref Desorption,"[2]; Cycle 1, desorption, target RH 50%",3.580%
same,Change in Mass (%)-ref Desorption,"[2]; Cycle 1, desorption, target RH 60%",3.730%
same,Change in Mass (%)-ref Desorption,"[2]; Cycle 1, desorption, target RH 70%",3.820%
same,Change in Mass (%)-ref Desorption,"[2]; Cycle 1, desorption, target RH 80%",3.970%
same,Change in Mass (%)-ref Desorption,"[2]; Cycle 1, desorption, target RH 90%",4.160%
same,Change in Mass (%)-ref Sorption,"[2]; Cycle 1, sorption, target RH 40%",3.420%
same,Change in Mass (%)-ref Sorption,"[2]; Cycle 1, sorption, target RH 50%",3.560%
same,Change in Mass (%)-ref Sorption,"[2]; Cycle 1, sorption, target RH 60%",3.720%
same,Change in Mass (%)-ref Sorption,"[2]; Cycle 1, sorption, target RH 70%",3.800%
same,Change in Mass (%)-ref Sorption,"[2]; Cycle 1, sorption, target RH 80%",3.920%
same,Change in Mass (%)-ref Sorption,"[2]; Cycle 1, sorption, target RH 90%",4.160%
same,Change in Mass (%)-ref Desorption,"[2]; Cycle 2, desorption, target RH 0%",0.000%
same,Change in Mass (%)-ref Desorption,"[2]; Cycle 2, desorption, target RH 10%",2.240%
same,Change in Mass (%)-ref Desorption,"[2]; Cycle 2, desorption, target RH 20%",2.680%
same,Change in Mass (%)-ref Desorption,"[2]; Cycle 2, desorption, target RH 30%",3.020%
same,Change in Mass (%)-ref Desorption,"[2]; Cycle 2, desorption, target RH 40%",3.260%
same,Change in Mass (%)-ref Desorption,"[2]; Cycle 2, desorption, target RH 50%",3.500%
same,Change in Mass (%)-ref Desorption,"[2]; Cycle 2, desorption, target RH 60%",3.670%
same,Change in Mass (%)-ref Desorption,"[2]; Cycle 2, desorption, target RH 70%",3.780%
same,Change in Mass (%)-ref Desorption,"[2]; Cycle 2, desorption, target RH 80%",3.890%
same,Change in Mass (%)-ref Desorption,"[2]; Cycle 2, desorption, target RH 90%",4.080%
same,Change in Mass (%)-ref Sorption,"[2]; Cycle 2, sorption, target RH 0%",0.180%
same,Change in Mass (%)-ref Sorption,"[2]; Cycle 2, sorption, target RH 10%",2.300%
same,Change in Mass (%)-ref Sorption,"[2]; Cycle 2, sorption, target RH 20%",2.770%
same,Change in Mass (%)-ref Sorption,"[2]; Cycle 2, sorption, target RH 30%",3.030%
same,Change in Mass (%)-ref Sorption,"[2]; Cycle 2, sorption, target RH 40%",3.290%
same,Change in Mass (%)-ref Sorption,"[2]; Cycle 2, sorption, target RH 50%",3.470%
same,Change in Mass (%)-ref Sorption,"[2]; Cycle 2, sorption, target RH 60%",3.660%
same,Change in Mass (%)-ref Sorption,"[2]; Cycle 2, sorption, target RH 70%",3.780%
same,Change in Mass (%)-ref Sorption,"[2]; Cycle 2, sorption, target RH 80%",3.900%
same,Change in Mass (%)-ref Sorption,"[2]; Cycle 2, sorption, target RH 90%",4.080%
same,Change in Mass (%)-ref Sorption,"[2]; Cycle 3, sorption, target RH 0%",0.000%
same,Change in Mass (%)-ref Sorption,"[2]; Cycle 3, sorption, target RH 10%",2.250%
same,Change in Mass (%)-ref Sorption,"[2]; Cycle 3, sorption, target RH 20%",2.740%
same,Change in Mass (%)-ref Sorption,"[2]; Cycle 3, sorption, target RH 30%",3.020%
same,Change in Mass (%)-ref Sorption,"[2]; Cycle 3, sorption, target RH 40%",3.220%
same,Observations at T = 24 hours,"[3]; 30 mg/mL in water at pH 4.2, agitated at ambient temperature ca. 24 hours",Yellow solution
same,Observations at T = 0 hours,"[3]; 30 mg/mL in water at pH 4.2, ambient temperature, T = 0 hours",Yellow slurry
same,stability compared to other morphic forms,[4],superior stability
